Data set [1] deals with T1, human GIP receptor (Homo sapiens, UniProt P48546).
T1 construct: host or cells: COS-7, transient transfection (calcium phosphate), cDNA in pCMV-Script
T1 sequence (P48546 22-466): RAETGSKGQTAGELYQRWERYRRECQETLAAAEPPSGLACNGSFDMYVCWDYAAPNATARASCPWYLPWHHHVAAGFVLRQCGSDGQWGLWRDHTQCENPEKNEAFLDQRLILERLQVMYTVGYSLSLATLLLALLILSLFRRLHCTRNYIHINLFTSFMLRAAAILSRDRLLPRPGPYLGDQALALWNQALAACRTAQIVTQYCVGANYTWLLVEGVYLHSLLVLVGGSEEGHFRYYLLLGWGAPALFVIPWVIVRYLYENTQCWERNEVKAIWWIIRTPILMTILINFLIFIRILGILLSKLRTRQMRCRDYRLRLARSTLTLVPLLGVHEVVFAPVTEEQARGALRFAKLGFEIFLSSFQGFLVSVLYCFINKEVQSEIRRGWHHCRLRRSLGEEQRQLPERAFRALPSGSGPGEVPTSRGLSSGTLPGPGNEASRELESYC
Briefly: cAMP accumulation assay, antagonism of a GIP-mediated cAMP response (50-80% of max). Format: cell-based. As to conditions: for Fold change of IC50 versus GIP(5-30)NH2: fold change of IC50 from GIP(5-30)NH2; for cAMP - antagonisme fold (paired): fold vs GIP(3-30)NH2. The protocol: The day after, the cells were washed twice with Hepes buffered saline (HBS) buffer and incubated with HBS and 1 mM 3-isobutyl-1-methylxanthine (IBMX) for 30 min at 37° C. […] The HitHunter™ cAMP XS assay (DiscoveRx) was carried out according to the manufacturer's instructions.
(Cyclic AMP is a second messenger, typically raised through Gs and lowered through Gi signalling.)

For data set [2], the target named is T1, human GIP receptor. Briefly: 125I-human GIP competition binding assay, in the presence and absence of 2% HSA.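 On all read-outs here: nonspecific binding taken as radioligand bound to untransfected cells, IC50 obtained from nonlinear regression fits.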 Particulars: for Fold change HSA (2%)/Casein (0.1%): IC50 (plus HSA)/IC50 (minus HSA); for Binding (+/−HSA) Fold: fold change +HSA/−HSA; for Binding fold (paired): fold decrease in affinity compared to GIP(3-30)NH2; for Fold change in affinity, IC50 (plus HSA)/IC50 (minus HSA): presence vs absence of 2% HSA, proxy for albumin binding.

Data set [3] deals with T1, human GIP receptor. Briefly: cAMP accumulation assay, agonism (ligand alone). Type of data set: cell-based. As to conditions: COS-7 cells, Table 1; for Emax: COS-7, intrinsic cAMP activity.
Where [4] appears, read: binding in 0.1% casein (absence of HSA), log value, read-out: logIC50 0.1% casein (converted).
[5] abbreviates: heterologous competition binding, transiently transfected COS-7 cells expressing the human GIP receptor, read-out: Binding.
The mark [6] stands for this setting: Table 3b, initial data, read-out: Binding IC50.

SMILES strings stand for the structures. Peptide text beside a SMILES is read from it. * marks the point of attachment. C16 diacid = O=C(O)CCCCCCCCCCCCCCC(=O)*; Stearoyl = CCCCCCCCCCCCCCCCCC(=O)*

Experimental findings from patent US11572399B2, “Long-acting GIP peptide analogues” (University of Copenhagen, priority 2017, dated 2023) are described below.

Turning to `CC[C@H](C)[C@H](NC(=O)[C@H](CO)NC(=O)[C@H](Cc1ccc(O)cc1)NC(=O)[C@H](CC(=O)O)NC(=O)[C@H](CCCCNC(=O)CCCCCCCCCCCCCCC(=O)O)NC(=O)[C@@H](NC(=O)[C@H](Cc1ccccc1)NC(=O)[C@@H](N)[C@@H](C)O)[C@@H](C)CC)C(=O)N[C@@H](C)C(=O)N[C@@H](CCSC)C(=O)N[C@@H](CC(=O)O)C(=O)N[C@@H](CCCCN)C(=O)N[C@H](C(=O)N[C@@H](Cc1c[nH]cn1)C(=O)N[C@@H](CCC(N)=O)C(=O)N[C@@H](CCC(N)=O)C(=O)N[C@@H](CC(=O)O)C(=O)N[C@@H](Cc1ccccc1)C(=O)N[C@H](C(=O)N[C@@H](CC(N)=O)C(=O)N[C@@H](Cc1c[nH]c2ccccc12)C(=O)N[C@@H](CC(C)C)C(=O)N[C@@H](CC(C)C)C(=O)N[C@@H](C)C(=O)N[C@@H](CCC(N)=O)C(=O)N[C@@H](CCCCN)C(N)=O)C(C)C)[C@@H](C)CC` [AT170, [hGIP(5-30)NH2[S8K]-C16diacid/8]] (H-TFIK(C16 diacid)DYSIAMDKIHQQDFVNWLLAQK-NH2; N-terminus assumed), the “Fold change of IC50 versus GIP(5-30)NH2” value on human GIP receptor [1] stood at 32.4. For the same compound, on human GIP receptor [2], the “Fold change HSA (2%)/Casein (0.1%)” value is recorded as 2.2 and the “Binding (+/−HSA) Fold” value worked out at 2.2. Also, at human GIP receptor [2] (setting [4]), the IC50 was 631 nM. Besides, at human GIP receptor [2] (presence of 2% HSA), the Ki is 1300 nM. This compound showed an Emax on human GIP receptor [3] of 0%.
`CC[C@H](C)[C@H](NC(=O)[C@H](CCCCN)NC(=O)[C@H](CC(=O)O)NC(=O)[C@H](CCSC)NC(=O)[C@H](C)NC(=O)[C@H](CCCCNC(=O)CCCCCCCCCCCCCCC(=O)O)NC(=O)[C@H](CO)NC(=O)[C@H](Cc1ccc(O)cc1)NC(=O)[C@H](CC(=O)O)NC(=O)[C@H](CO)NC(=O)[C@@H](NC(=O)[C@H](Cc1ccccc1)NC(=O)[C@@H](N)[C@@H](C)O)[C@@H](C)CC)C(=O)N[C@@H](Cc1c[nH]cn1)C(=O)N[C@@H](CCC(N)=O)C(=O)N[C@@H](CCC(N)=O)C(=O)N[C@@H](CC(=O)O)C(=O)N[C@@H](Cc1ccccc1)C(=O)N[C@H](C(=O)N[C@@H](CC(N)=O)C(=O)N[C@@H](Cc1c[nH]c2ccccc12)C(=O)N[C@@H](CC(C)C)C(=O)N[C@@H](CC(C)C)C(=O)N[C@@H](C)C(=O)N[C@@H](CCC(N)=O)C(=O)N[C@@H](CCCCN)C(N)=O)C(C)C` [AT174, [hGIP(5-30)NH2[I12K]-C16diacid/12]] (H-TFISDYSK(C16 diacid)AMDKIHQQDFVNWLLAQK-NH2; N-terminus assumed): on human GIP receptor [1], the “Ability to antagonize the GIP-mediated cAMP response (in words)” value is given as “highest antagonistic potencies” and the “Fold change of IC50 versus GIP(5-30)NH2” value was determined as 0.9. Moreover, at human GIP receptor [2], the “Fold change HSA (2%)/Casein (0.1%)” value is listed as 3.5 and the “Binding (+/−HSA) Fold” value is 6.1. Further, the IC50 at human GIP receptor [2] (setting [4]) is 79.4 nM. Also, the IC50 on human GIP receptor [2] (setting [5]) came out at 80 nM. Also, the Emax at human GIP receptor [3] was determined as 0%.
Take `CCCCCCCCCCCCCCCCCC(=O)NCCCC[C@H](NC(=O)[C@@H](NC(=O)[C@H](CCCCN)NC(=O)[C@H](CC(=O)O)NC(=O)[C@H](CCSC)NC(=O)[C@H](C)NC(=O)[C@@H](NC(=O)[C@H](CO)NC(=O)[C@H](Cc1ccc(O)cc1)NC(=O)[C@H](CC(=O)O)NC(=O)[C@H](CO)NC(=O)[C@@H](NC(=O)[C@H](Cc1ccccc1)NC(=O)[C@@H](NC(=O)CNC(=O)[C@@H](N)CCC(=O)O)[C@@H](C)O)[C@@H](C)CC)[C@@H](C)CC)[C@@H](C)CC)C(=O)N[C@@H](CCC(N)=O)C(=O)N[C@@H](CCC(N)=O)C(=O)N[C@@H](CC(=O)O)C(=O)N[C@@H](Cc1ccccc1)C(=O)N[C@H](C(=O)N[C@@H](CC(N)=O)C(=O)N[C@@H](Cc1c[nH]c2ccccc12)C(=O)N[C@@H](CC(C)C)C(=O)N[C@@H](CC(C)C)C(=O)N[C@@H](C)C(=O)N[C@@H](CCC(N)=O)C(=O)N[C@@H](CCCCN)C(N)=O)C(C)C` [AT160, [hGIP(3-30)NH2[H18K]-C18/18]] (H-EGTFISDYSIAMDKIK(Stearoyl)QQDFVNWLLAQK-NH2; N-terminus assumed): at human GIP receptor [1] (Table 3b), the “cAMP - antagonisme fold (paired)” value turned out to be 0.7 fold. For the same compound, the IC50 at human GIP receptor [1] (transiently transfected COS-7 cells, Table 1 and text, read-out: cAMP antagonism nM (IC50, antagonistic potency)) was 38 nM; on human GIP receptor [2] (0.1% casein, no HSA, Table 3b, read-out: Binding logIC50 0.1% casein (converted)), 48.8 nM; on human GIP receptor [2] (setting [6]), 48.8 nM; on human GIP receptor [2] (setting [5]), 49 nM. Besides, the “Binding fold (paired)” value at human GIP receptor [2] (Table 3b) was found to be 6 fold. For the same compound, the “Fold change in affinity, IC50 (plus HSA)/IC50 (minus HSA)” value on human GIP receptor [2] was 3.6 fold. The compound further came in with a maximal effect (Emax) on human GIP receptor [3] of 13%. Also, the EC50 on human GIP receptor [3] (read-out: cAMP agonism nM (EC50)) came to 962 nM.
Consider `CC[C@H](C)[C@H](NC(=O)[C@H](CO)NC(=O)[C@H](Cc1ccc(O)cc1)NC(=O)[C@H](CC(=O)O)NC(=O)[C@H](CO)NC(=O)[C@@H](NC(=O)[C@H](Cc1ccccc1)NC(=O)[C@@H](NC(=O)CCCCCCCCCCCCCCCCC(=O)O)[C@@H](C)O)[C@@H](C)CC)C(=O)N[C@@H](C)C(=O)N[C@@H](CCSC)C(=O)N[C@@H](CC(=O)O)C(=O)N[C@@H](CCCCN)C(=O)N[C@H](C(=O)N[C@@H](Cc1c[nH]cn1)C(=O)N[C@@H](CCC(N)=O)C(=O)N[C@@H](CCC(N)=O)C(=O)N[C@@H](CC(=O)O)C(=O)N[C@@H](Cc1ccccc1)C(=O)N[C@H](C(=O)N[C@@H](CC(N)=O)C(=O)N[C@@H](Cc1c[nH]c2ccccc12)C(=O)N[C@@H](CC(C)C)C(=O)N[C@@H](CC(C)C)C(=O)N[C@@H](C)C(=O)N[C@@H](CCC(N)=O)C(=O)N[C@@H](CCCCN)C(N)=O)C(C)C)[C@@H](C)CC` [AT138, [hGIP(5-30)NH2—C18diacid/5]], for which the “Ability to antagonize the GIP-mediated cAMP response (in words)” value at human GIP receptor [1] is given as “failed to antagonize”. The “Fold change HSA (2%)/Casein (0.1%)” value on human GIP receptor [2] is reported as 3.8. In addition, the IC50 is 2510 nM at human GIP receptor [2] (setting [4]) and 2640 nM on human GIP receptor [2] (setting [5]). The compound further displayed an Emax at human GIP receptor [3] of 0%.
Regarding `CCCCCCCCCCCCCCCCCC(=O)NCCCC[C@H](NC(=O)[C@H](CC(=O)O)NC(=O)[C@H](CCSC)NC(=O)[C@H](C)NC(=O)[C@@H](NC(=O)[C@H](CO)NC(=O)[C@H](Cc1ccc(O)cc1)NC(=O)[C@H](CC(=O)O)NC(=O)[C@H](CO)NC(=O)[C@@H](NC(=O)[C@H](Cc1ccccc1)NC(=O)[C@@H](NC(=O)CNC(=O)[C@@H](N)CCC(=O)O)[C@@H](C)O)[C@@H](C)CC)[C@@H](C)CC)C(=O)N[C@H](C(=O)N[C@@H](Cc1c[nH]cn1)C(=O)N[C@@H](CCC(N)=O)C(=O)N[C@@H](CCC(N)=O)C(=O)N[C@@H](CC(=O)O)C(=O)N[C@@H](Cc1ccccc1)C(=O)N[C@H](C(=O)N[C@@H](CC(N)=O)C(=O)N[C@@H](Cc1c[nH]c2ccccc12)C(=O)N[C@@H](CC(C)C)C(=O)N[C@@H](CC(C)C)C(=O)N[C@@H](C)C(=O)N[C@@H](CCC(N)=O)C(=O)N[C@@H](CCCCN)C(N)=O)C(C)C)[C@@H](C)CC` [AT114, [hGIP(3-30)NH2—C18/16]], the IC50 on human GIP receptor [1] (Table 3b, initial data, read-out: cAMP - antagonisme IC50) was 29.2 nM; on human GIP receptor [1] (given as log IC50 (negative sign), transiently transfected COS-7 cells, Table 1, read-out: cAMP antagonism log (converted)), 63.1 nM; at human GIP receptor [2] (setting [6]), 102 nM; at human GIP receptor [2] (setting [4]), 501 nM. For the same compound, on human GIP receptor [1] (Table 3b), the “cAMP - antagonisme fold (paired)” value was 2.3 fold. For the same compound, the “Fold change HSA (2%)/Casein (0.1%)” value at human GIP receptor [2] came out at 11.2. Moreover, the “Binding fold (paired)” value at human GIP receptor [2] (Table 3b) is given as 6.7 fold. Moreover, the “Fold change in affinity, IC50 (plus HSA)/IC50 (minus HSA)” value at human GIP receptor [2] was determined as 7.7 fold. Further, the Emax on human GIP receptor [3] is 39%.

Usually Ki stands for a measure of affinity in units of concentration, obtained from inhibition or displacement. The Emax is the maximal effect, on the per cent scale that the assay sets. The EC50 is the concentration that produces a half-maximal response.
